# Assay results as given in patent US11795165B2, “Tetrahydro-benzoazepine glycosidase inhibitors” (Asceneuron SA, priority 2018, dated 2023).
# Target: His-Tagged hOGA (human O-GlcNAcase) (Homo sapiens (Human), UniProt O60502)
# Assay: Human O-GlcNAcase enzyme inhibition assay (OGA enzyme inhibition assay)
# Assay type: biochemical
# Details: His-Tagged hOGA 20 nM, FL-GlcNAc 10 μM, 60 min at room temperature, pH 6.5; activity classes
# Method: Example B01: Human O-GlcNAcase Enzyme Inhibition Assay
# 5 μl of the appropriate concentration of a solution of inhibitor in McIlvaine's Buffer (pH 6.5) in 2% DMSO (for a dose response curve calculation) is added into each well of a 384-well plate (Greiner, 781900). Then, 20 nM of His-Tagged hOGA and 10 μM of FL-GlcNAc (Fluorescein mono-beta-D-(2-deoxy-2-N-acetyl) glucopyranoside; Marker Gene Technologies Inc, M1485) were added to the 384-well plate for a final volume of 20 μl. After incubation for 60 min at room temperature, the reaction was terminated by the addition of 10 μL of stop buffer (200 mM glycine, pH 10.75). The level of fluorescence (Δexc 485 nm; (Δemm 520 nm) was read on a PHERAstar machine. The amount of fluorescence measured was plotted against the concentration of inhibitor to produce a sigmoidal dose response curve to calculate an IC50. All individual data was corrected by subtraction of the background (Thiamet 3 uM=100% inhibition) whilst 0.5% DMSO was considered as the control value (no inhibition).
# Chain of His-Tagged hOGA (human O-GlcNAcase) (O60502 whole entry): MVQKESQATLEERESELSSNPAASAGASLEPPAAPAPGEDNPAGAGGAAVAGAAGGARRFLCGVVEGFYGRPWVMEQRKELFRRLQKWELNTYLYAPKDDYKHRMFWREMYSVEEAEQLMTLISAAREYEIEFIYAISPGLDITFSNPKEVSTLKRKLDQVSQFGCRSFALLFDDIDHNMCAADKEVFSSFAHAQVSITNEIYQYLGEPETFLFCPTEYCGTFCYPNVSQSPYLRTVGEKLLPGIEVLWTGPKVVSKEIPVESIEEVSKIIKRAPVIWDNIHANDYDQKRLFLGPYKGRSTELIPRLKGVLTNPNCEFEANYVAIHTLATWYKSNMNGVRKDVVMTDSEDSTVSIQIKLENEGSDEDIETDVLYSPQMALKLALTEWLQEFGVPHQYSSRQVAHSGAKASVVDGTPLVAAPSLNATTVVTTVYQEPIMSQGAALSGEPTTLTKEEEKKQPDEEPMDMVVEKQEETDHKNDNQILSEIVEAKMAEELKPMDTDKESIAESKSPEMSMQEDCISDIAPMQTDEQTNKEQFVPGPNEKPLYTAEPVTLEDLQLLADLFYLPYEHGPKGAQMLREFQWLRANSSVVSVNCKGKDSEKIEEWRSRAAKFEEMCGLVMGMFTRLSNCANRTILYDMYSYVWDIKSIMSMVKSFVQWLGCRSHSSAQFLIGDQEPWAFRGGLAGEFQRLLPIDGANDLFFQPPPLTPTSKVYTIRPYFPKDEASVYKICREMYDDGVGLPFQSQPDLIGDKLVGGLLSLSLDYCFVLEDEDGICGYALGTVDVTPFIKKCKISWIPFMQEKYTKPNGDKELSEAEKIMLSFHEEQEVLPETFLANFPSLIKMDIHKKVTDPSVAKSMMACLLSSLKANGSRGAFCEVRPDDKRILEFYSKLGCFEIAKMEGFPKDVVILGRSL
row,IC50 [nM],Compound
1,200 to 1000,CC(c1ccc2scnc2c1)N1CCCc2cc(-c3cnn(C)c3)ccc2C1 (racemic) [Example 110]
2,< 50,"CC(c1ccc2scnc2c1)N1CCc2ccccc2CC1 (single isomer, unassigned) [Example 21]"
3,1000 to 10000,"COc1ccc2c(c1)CCN(Cc1ccc3nsnc3c1)C(C)C2 (racemic) [Example 28, 5-((7-methoxy-2-methyl-1,2,4,5-tetrahydro-3H-benzo[d]azepin-3-yl)methyl)benzo[c][1,2,5]thiadiazole]"
4,< 50,"CC(c1ccc2scnc2c1)N1CCc2ccc(O)cc2CC1 (racemic) [Example 33, 3-(1-(benzo[d]thiazol-5-yl)ethyl)-2,3,4,5-tetrahydro-1H-benzo[d]azepin-7-ol]"
5,< 50,"CC(c1ccc2scnc2c1)N1CCc2ccc(S(C)(=O)=O)cc2CC1 (racemic) [Example 18, 5-(1-(7-(methylsulfonyl)-1,2,4,5-tetrahydro-3H-benzo[d]azepin-3-yl)ethyl)benzo[d]thiazole]"
6,< 50,"COc1ccc2c(n1)CCN(C(C)c1ccc3scnc3c1)CC2 (racemic) [Example 31, 5-(1-(2-methoxy-5,6,8,9-tetrahydro-7H-pyrido[2,3-d]azepin-7-yl)ethyl)benzo[d]thiazole]"
7,< 50,"CC(c1ccc2scnc2c1)N1CCc2ccc(Br)cc2CC1 (racemic) [Example 14, 5-(1-(7-bromo-1,2,4,5-tetrahydro-3H-benzo[d]azepin-3-yl)ethyl)benzo[d]thiazole]"
8,1000 to 10000,"COc1ccc2c(c1)CCN(Cc1ccc3c(c1)OCCO3)C(C)C2 (racemic) [Example 30, 3-((2,3-dihydrobenzo[b][1,4]dioxin-6-yl)methyl)-7-methoxy-2-methyl-2,3,4,5-tetrahydro-1H-benzo[d]azepine]"
9,< 50,CC(c1ccc2scnc2c1)N1CCc2ccc(-c3cnn(C)c3)cc2CC1 (racemic) [Example 109]
10,1000 to 10000,CC(=O)Nc1ncc(CN2CCCc3ccccc3C2C)s1 (racemic) [Example 122]
11,< 50,"COc1ccc2c(c1)CCN(C(C)c1ccc3nccnc3c1)CC2 (racemic) [Example 12, 7-methoxy-3-(1-(quinoxalin-6-yl)ethyl)-2,3,4,5-tetrahydro-1H-benzo[d]azepine]"
12,< 50,CC(=O)Nc1cnc2c(c1)CCN(C(C)c1ccc3scnc3c1)CC2 (racemic) [Example 92]
13,< 50,CC(c1ccc2scnc2c1)N1CCc2ccc(S(C)(=N)=O)cc2CC1 (racemic) [Example 37]
14,200 to 1000,"COc1ccc2c(c1)CCN(C(C)c1ccc3scnc3c1)CC2 (single isomer, unassigned) [Example 6]"
15,1000 to 10000,"CSc1ccc2c(c1)CCN(C(C)c1ccc3scnc3c1)CC2 (single isomer, unassigned) [Example 118]"
16,< 50,"COc1ccc2c(c1)CCN([C@@H](C)c1ccc3scnc3c1)CC2 [Example 5, (S)-5-(1-(7-methoxy-1,2,4,5-tetrahydro-3H-benzo[d]azepin-3-yl)ethyl)benzo[d]thiazole]"
17,200 to 1000,CC(=O)Nc1ccc2c(c1)CCCN(C(C)c1ccc3scnc3c1)C2 (racemic) [Example 107]
18,1000 to 10000,"CC(c1ccc2scnc2c1)N1CCc2ccc(S(C)(=N)=O)cc2CC1 (single isomer, unassigned) [Example 115]"
19,< 50,"CSc1ccc2c(c1)CCN(C(C)c1ccc3scnc3c1)CC2 (single isomer, unassigned) [Example 119]"
20,< 50,CC(c1ccc2scnc2c1)N1CCc2cc(S(C)(=N)=O)cnc2CC1 (racemic) [Example 52]
21,200 to 1000,"CC(c1ccc2scnc2c1)N1CCCc2cc(S(C)(=O)=O)ccc2C1 (racemic) [Example 17, 5-(1-(7-(methylsulfonyl)-1,3,4,5-tetrahydro-2H-benzo[c]azepin-2-yl)ethyl)benzo[d]thiazole]"
22,< 50,"CC(c1ccc2scnc2c1)N1CCc2ccc(C#N)cc2CC1 (racemic) [Example 16, 3-(1-(benzo[d]thiazol-5-yl)ethyl)-2,3,4,5-tetrahydro-1H-benzo[d]azepine-7-carbonitrile]"
23,< 50,Cc1cc(Oc2ccc3c(c2)CCN(C(C)c2ccc4scnc4c2)CC3)nc(C)n1 (racemic) [Example 62]
24,< 50,"CC(c1ccc2scnc2c1)N1CCc2ccccc2CC1 (racemic) [Example 20, 5-(1-(1,2,4,5-tetrahydro-3H-benzo[d]azepin-3-yl)ethyl)benzo[d]thiazole]"

row,IC50 [nM],Compound
1,50 to 200,"COc1ccc2c(c1)CCN(C(C)c1ccc3c(c1)OCC3)CC2 (single isomer, unassigned) [Example 9]"
2,50 to 200,"COc1ccc2c(c1Cl)CCN(C(C)c1ccc3scnc3c1)CC2 (racemic) [Example 10, 5-(1-(6-chloro-7-methoxy-1,2,4,5-tetrahydro-3H-benzo[d]azepin-3-yl)ethyl)benzo[d]thiazole]"
3,200 to 1000,CC(c1ccc2scnc2c1)N1CCCc2ncc([N+](=O)[O-])cc2C1 (racemic) [Example 106]
4,200 to 1000,"CC(c1ccc2scnc2c1)N1CCCc2cc(Br)ccc2C1 (racemic) [Example 13, 5-(1-(7-bromo-1,3,4,5-tetrahydro-2H-benzo[c]azepin-2-yl)ethyl)benzo[d]thiazole]"
5,< 50,"COc1ccc2c(c1)CCN(C(C)c1ccc3c(c1)OCC3)CC2 (stereo not shown) [Example 7, 3-(1-(2,3-dihydrobenzofuran-6-yl)ethyl)-7-methoxy-2,3,4,5-tetrahydro-1H-benzo[d]azepine]"
6,< 50,CC(=O)Nc1ccc2c(c1)CCN(C(C)c1ccc3scnc3c1)CC2 (racemic) [Example 43]
7,< 50,Cc1cc(Oc2ccc3c(c2)CCN(C(C)c2ccc4scnc4c2)CC3)ccn1 (racemic) [Example 60]
8,1000 to 10000,"COc1ccc2c(c1)CCN(C(C)c1ccc3nsnc3c1)CC2 (single isomer, unassigned) [Example 3]"
9,50 to 200,COc1ccc2c(c1)CCN(C(C)c1ccc3scnc3c1)CC2O (racemic) [Example 116]
10,< 50,CC(c1ccc2scnc2c1)N1CCc2cc(NS(=O)(=O)C3CC3)cnc2CC1 (racemic) [Example 120]
11,< 50,"CC(c1ccc2scnc2c1)N1CCc2ccc(OC(F)F)cc2CC1 (racemic) [Example 24, 5-(1-(7-(difluoromethoxy)-1,2,4,5-tetrahydro-3H-benzo[d]azepin-3-yl)ethyl)benzo[d]thiazole]"
12,50 to 200,"5-(1-(7-methoxy-2-methyl-1,2,4,5-tetrahydro-3H-benzo[d]azepin-3-yl)ethyl)benzo[d]thiazole [Example 19]"
13,< 50,"COc1cc2c(cc1Cl)CCN(C(C)c1ccc3scnc3c1)CC2 (racemic) [Example 11, 5-(1-(7-chloro-8-methoxy-1,2,4,5-tetrahydro-3H-benzo[d]azepin-3-yl)ethyl)benzo[d]thiazole]"
14,200 to 1000,"CC(c1ccc2scnc2c1)N1CCc2ccccc2CC1 (single isomer, unassigned) [Example 22]"
15,200 to 1000,"CC(c1ccc2scnc2c1)N1CCCc2cc(C#N)ccc2C1 (racemic) [Example 15, 2-(1-(benzo[d]thiazol-5-yl)ethyl)-2,3,4,5-tetrahydro-1H-benzo[c]azepine-7-carbonitrile]"
16,< 50,"COc1ccc2c(c1)CCN(C(C)c1ccc3nsnc3c1)CC2 (stereo not shown) [Example 1, 5-(1-(7-methoxy-1,2,4,5-tetrahydro-3H-benzo[d]azepin-3-yl)ethyl)benzo[c][1,2,5]thiadiazole]"
17,< 50,"COc1ccc2c(c1)CCN(C(C)c1cnc3c(c1)OCC3)CC2 (racemic) [Example 34, 6-(1-(7-methoxy-1,2,4,5-tetrahydro-3H-benzo[d]azepin-3-yl)ethyl)-2,3-dihydrofuro[3,2-b]pyridine]"
18,200 to 1000,CSc1ccc2c(c1)CCCN(C(C)c1ccc3scnc3c1)C2 (racemic) [Example 112]
19,200 to 1000,CC(c1ccc2scnc2c1)N1CCCc2ncc(NS(=O)(=O)C3CC3)cc2C1 (racemic) [Example 121]
20,< 50,CC(c1ccc2scnc2c1)N1CCc2cc(N)cnc2CC1 (racemic) [Example 117]
21,< 50,CC(c1ccc2scnc2c1)N1CCc2cc(S(C)(=O)=O)cnc2CC1 (racemic) [Example 51]
22,< 50,CSc1ccc2c(c1)CCN(C(C)c1ccc3scnc3c1)CC2 (racemic) [Example 111]
23,50 to 200,"CC(C)Oc1ccc2c(c1)CCN(C(C)c1ccc3scnc3c1)CC2 (racemic) [Example 25, 5-(1-(7-isopropoxy-1,2,4,5-tetrahydro-3H-benzo[d]azepin-3-yl)ethyl)benzo[d]thiazole]"

row,Compound,IC50 [nM]
1,"CC(C)COc1ccc2c(c1)CCN(C(C)c1ccc3scnc3c1)CC2 (racemic) [Example 26, 5-(1-(7-isobutoxy-1,2,4,5-tetrahydro-3H-benzo[d]azepin-3-yl)ethyl)benzo[d]thiazole]",200 to 1000
2,"CC(C)COc1ccc2c(c1)CCN(C(C)c1ccc3scnc3c1)CC2 (single isomer, unassigned) [Example 27, (R)-5-(1-(7-isobutoxy-1,2,4,5-tetrahydro-3H-benzo[d]azepin-3-yl)ethyl)benzo[d]thiazole or (S)-5-(1-(7-isobutoxy-1,2,4,5-tetrahydro-3H-benzo[d]azepin-3-yl)ethyl)benzo[d]thiazole]",200 to 1000
